Measurements from PubChem BioAssay (NCI).
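Exposure lasted 48 hours, with cells grown in 96-well plates and compounds tested at five concentrations. GI50: concentration for 50% inhibition of growth. At the TGI there is no net growth.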

How the values were obtained:
Assay in all cases: inhibition of tumour cell growth, NCI panel, 48 h
[1] = system: IGROV1 ovarian
[2] = system: HS 578T breast
[3] = system: LOX IMVI melanoma
[4] = system: MALME-3M melanoma
[5] = system: HOP-92 NSCLC
[6] = system: OVCAR-4 ovarian
[7] = system: HCT-15 colon
[8] = system: MDA-MB-231 breast
[9] = system: HCC-2998 colon
[10] = system: PC-3 prostate
[11] = system: HCT-116 colon
[12] = system: T-47D breast
[13] = system: A498 renal
[14] = system: RXF 393 renal
[15] = system: MOLT-4 leukemia
[16] = system: OVCAR-8 ovarian
[17] = system: NCI-H226 lung
[18] = system: SK-MEL-2 melanoma
[19] = system: OVCAR-3 ovarian
[20] = system: HT29 colon
[21] = system: M14 melanoma
[22] = system: MCF7 breast
[23] = system: SF-268 CNS
[24] = system: CCRF-CEM leukemia
[25] = system: NCI-H522 lung
[26] = system: UO-31 renal
[27] = system: NCI-H23 lung
[28] = system: ACHN renal
[29] = system: NCI-H460 lung
[30] = system: NCI/ADR-RES ovarian
[31] = system: A549 NSCLC
[32] = system: RPMI-8226 leukemia
[33] = system: BT-549 breast
[34] = system: K-562 leukemia
[35] = system: HL-60(TB) leukemia
[36] = system: HOP-62 NSCLC
[37] = system: SR leukemia
[38] = system: DU-145 prostate
[39] = system: KM12 colon
[40] = system: SK-MEL-5 melanoma
[41] = system: UACC-62 melanoma
[42] = system: SF-539 CNS
[43] = system: UACC-257 melanoma
[44] = system: CAKI-1 renal
[45] = system: SK-OV-3 ovarian
[46] = system: OVCAR-5 ovarian
[47] = system: COLO 205 colon
[48] = system: U251 CNS
[49] = system: MDA-MB-435
[50] = system: SNB-19 CNS
[51] = system: 786-0 renal
[52] = system: TK-10 renal
[53] = system: SNB-75 CNS
[54] = system: SK-MEL-28 melanoma
[55] = system: SW-620 colon
[56] = system: SN12C renal

## N#CCCN1C/C(=C/c2ccccc2)C(=O)/C(=C/c2ccccc2)C1
[1]
  GI50: 3.66 µM
  TGI: 12.7 µM
[2]
  GI50: 2960 nM
  TGI: 13.3 µM
[3]
  GI50: 1090 nM
  TGI: 2470 nM
[4]
  GI50: 2910 nM
  TGI: 6.69 µM
[5]
  GI50: 12.3 µM
  TGI: 29.4 µM
[6]
  GI50: 3.1 µM
  TGI: 13.1 µM
[7]
  GI50: 1450 nM
  TGI: 3.54 µM
[8]
  GI50: 2750 nM
  TGI: 7.06 µM
[9]
  GI50: 1740 nM
  TGI: 3.2 µM
[10]
  GI50: 2600 nM
  TGI: 7.9 µM
[11]
  GI50: 397 nM
  TGI: 1880 nM
[12]
  GI50: 7.43 µM
  TGI: 21.4 µM
[13]
  GI50: 13.4 µM
  TGI: 26.8 µM
[14]
  GI50: 1660 nM
  TGI: 3.38 µM
[15]
  GI50: 2950 nM
  TGI: 17.9 µM
[16]
  GI50: 2230 nM
  TGI: 6.03 µM
[17]
  GI50: 18.1 µM
  TGI: 50.3 µM
[18]
  GI50: 2620 nM
  TGI: 5.87 µM
[19]
  GI50: 2630 nM
  TGI: 6.04 µM
[20]
  GI50: 1810 nM
  TGI: 3.91 µM
[21]
  GI50: 2120 nM
  TGI: 4.63 µM
[22]
  GI50: 395 nM
  TGI: 2350 nM
[23]
  GI50: 2940 nM
  TGI: 8.88 µM
[24]
  GI50: 498 nM
  TGI: > 100 µM
[25]
  GI50: 1900 nM
  TGI: 3.56 µM
[26]
  GI50: 2010 nM
  TGI: 6.08 µM
[27]
  GI50: 3.46 µM
  TGI: 12.6 µM
[28]
  GI50: 1830 nM
  TGI: 3.4 µM
[29]
  GI50: 1920 nM
  TGI: 3.91 µM
[30]
  GI50: 3.44 µM
  TGI: 31.7 µM
[31]
  GI50: 3.8 µM
  TGI: 16.2 µM
[32]
  GI50: 295 nM
  TGI: 1160 nM
[33]
  GI50: 2140 nM
  TGI: 4.23 µM
[34]
  GI50: 744 nM
  TGI: > 100 µM
[35]
  GI50: 2970 nM
  TGI: 21.2 µM
[36]
  GI50: 2610 nM
  TGI: 6.03 µM
[37]
  GI50: 289 nM
  TGI: > 100 µM
[38]
  GI50: 5.86 µM
  TGI: 18.1 µM
[39]
  GI50: 1590 nM
  TGI: 3.12 µM
[40]
  GI50: 1650 nM
  TGI: 3.07 µM
[41]
  GI50: 1730 nM
  TGI: 3.44 µM
[42]
  GI50: 2200 nM
  TGI: 4.98 µM
[43]
  GI50: 1910 nM
  TGI: 4.64 µM
[44]
  GI50: 3.16 µM
  TGI: 11.1 µM
[45]
  GI50: 4.09 µM
  TGI: 14.2 µM
[46]
  GI50: 2550 nM
  TGI: 6.6 µM
[47]
  GI50: 2590 nM
  TGI: 6.42 µM
[48]
  GI50: 1480 nM
  TGI: 3.12 µM
[49]
  GI50: 2130 nM
  TGI: 5.89 µM
[50]
  GI50: 3.19 µM
  TGI: 13.6 µM
[51]
  GI50: 1920 nM
  TGI: 4.07 µM
[52]
  GI50: 2970 nM
  TGI: 7.76 µM
[53]
  GI50: 7.43 µM
  TGI: 21.3 µM
[54]
  GI50: 1790 nM
  TGI: 3.54 µM
[55]
  GI50: 647 nM
  TGI: 2470 nM
[56]
  GI50: 2150 nM
  TGI: 4.79 µM
